Like-named read-outs stand apart in the source and are kept apart here.
Biological target: NLRP3 inflammasome (Homo sapiens, UniProt Q96P20)
Test: Inhibition of IL-1β release, NLRP3 inflammasome activation assay in HMDM
Assay type: cell-based
Method: The following assays can be used to determine inhibitory activity of test compounds on the NLRP3 inflammasome using common stimuli such as adenosine triphosphate, nigericin, LeuLeu-OMe or monosodium urate crystals (MSU).
To generate HMDM, human monocytes are isolated from buffy coat blood using Ficoll-Plaque Plus (GE Healthcare) and density centrifugation. CD14^+ cell selection is performed using MACS magnetic beads (Miltenyl Biotec).
HMDM are seeded at 1×10^5/ml. […] Medium is removed and replaced with serum free medium (SFM) containing test compound 30 min prior to NLRP3 stimulation. […] ATP can be sourced from Sigma Aldrich, nigericin and MSU from Invivogen and LeuLeu-Ome from Chem-Impex International.
For ELISA and cell death assays cells are seeded in 96 well plates. Supernatants are removed and analysed using ELISA kits according to the manufacturer's instructions (DuoSet® R&D Systems, ReadySetGo!® eBioscience, BD OptEIA™, or Perkin Elmer AlphaLISA®). Cell death is assessed by measurement of LDH release relative to a 100% cell lysis control using the CytoTox96® non-radioactive cytotoxicity assay (Promega).

[1] = inhibition of IL-1β release, class symbols, read-out: Avg. IL-1β IC50 HMDM
[2] = commercial compounds (Table 9), read-out: HMDM IC50 vs NLRP3

NLRP3 inflammasome, sequence (Q96P20 whole entry): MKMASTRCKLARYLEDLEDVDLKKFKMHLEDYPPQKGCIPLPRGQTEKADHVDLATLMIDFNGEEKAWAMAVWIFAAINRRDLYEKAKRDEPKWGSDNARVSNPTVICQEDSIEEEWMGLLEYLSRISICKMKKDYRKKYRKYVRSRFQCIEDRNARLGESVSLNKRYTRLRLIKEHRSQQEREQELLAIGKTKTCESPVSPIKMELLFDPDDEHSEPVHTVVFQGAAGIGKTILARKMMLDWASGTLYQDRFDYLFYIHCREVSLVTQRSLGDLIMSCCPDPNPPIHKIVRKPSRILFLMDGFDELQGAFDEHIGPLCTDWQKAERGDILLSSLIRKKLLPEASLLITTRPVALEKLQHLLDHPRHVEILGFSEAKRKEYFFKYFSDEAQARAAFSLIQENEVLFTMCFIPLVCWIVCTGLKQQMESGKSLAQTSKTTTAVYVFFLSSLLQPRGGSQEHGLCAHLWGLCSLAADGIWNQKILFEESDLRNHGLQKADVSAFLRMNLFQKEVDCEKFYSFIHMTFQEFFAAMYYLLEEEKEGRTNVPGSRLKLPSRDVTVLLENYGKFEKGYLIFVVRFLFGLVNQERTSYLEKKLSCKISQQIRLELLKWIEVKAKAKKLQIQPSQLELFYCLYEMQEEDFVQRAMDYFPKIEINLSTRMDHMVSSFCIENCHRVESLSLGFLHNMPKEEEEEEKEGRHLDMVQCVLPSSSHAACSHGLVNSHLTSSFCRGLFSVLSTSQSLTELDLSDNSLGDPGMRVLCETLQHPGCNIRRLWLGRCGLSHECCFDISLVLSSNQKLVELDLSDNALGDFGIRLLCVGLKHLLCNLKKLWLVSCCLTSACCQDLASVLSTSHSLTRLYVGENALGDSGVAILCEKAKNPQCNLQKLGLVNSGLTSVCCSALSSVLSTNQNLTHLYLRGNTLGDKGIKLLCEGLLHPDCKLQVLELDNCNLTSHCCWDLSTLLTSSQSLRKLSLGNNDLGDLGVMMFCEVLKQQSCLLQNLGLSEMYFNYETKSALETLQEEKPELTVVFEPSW

Structure (SMILES)	IC50 [1]	IC50 [2]
CC(C)(O)c1coc(S(=O)(=O)NC(=O)Nc2c3c(cc4c2CCC4O)CCC3)c1 (stereo not shown) [N-((1-hydroxy-1,2,3,5,6,7-hexahydro-s-indacen-4-yl)carbamoyl)-4-(2-hydroxypropan-2-yl)furan-2-sulfonamide]	< 10000 nM	–
Cc1cnc(C(=O)NCCc2ccc(S(=O)(=O)NC(=O)Nc3c4c(cc5c3CCC5)CCC4)cc2)cn1 [N-(4-(N-((1,2,3,5,6,7-hexahydro-s-indacen-4-yl)carbamoyl)sulfamoyl)phenethyl)-5-methylpyrazine-2-carboxamide]	< 1000 nM	–
CC(C)(C)c1cc(C(C)(C)C)nc(NC(=O)NS(=O)(=O)c2cc(C(C)(C)O)co2)n1 [N-((4,6-di-tert-butylpyrimidin-2-yl)carbamoyl)-4-(2-hydroxypropan-2-yl)furan-2-sulfonamide]	< 50000 nM	–
CC(C)(O)c1coc(S(=O)(=O)NC(=S)Nc2c3c(cc4c2CCC4)CCC3)c1 [N-((1,2,3,5,6,7-hexahydro-s-indacen-4-yl)carbamothioyl)-4-(2-hydroxypropan-2-yl)furan-2-sulfonamide]	< 1000 nM	–
CN(C)S(=O)(=O)c1cccc(S(=O)(=O)NC(=O)Nc2c3c(cc4c2CCC4)CCC3)c1 [N1-((1,2,3,5,6,7-hexahydro-s-indacen-4-yl)carbamoyl)-N3,N3-dimethylbenzene-1,3-disulfonamide]	< 100 nM	–
O=C(Nc1c2c(cc3c1CCC3)CCC2)NS(=O)(=O)C1CCOC1 (stereo not shown) [N-((1,2,3,5,6,7-hexahydro-s-indacen-4-yl)carbamoyl)tetrahydrofuran-3-sulfonamide]	< 10000 nM	–
O=C(Nc1c2c(cc3c1CCC3)CCC2)NS(=O)(=O)c1cccc(C(=O)O)c1 [3-(N-((1,2,3,5,6,7-hexahydro-s-indacen-4-yl)carbamoyl)sulfamoyl)benzoic acid]	< 100 nM	–
O=C(Nc1c2c(cc3c1CCC3)CCC2)NS(=O)(=O)c1ccc2c(c1)S(=O)(=O)CC2 [N-((1,2,3,5,6,7-hexahydro-s-indacen-4-yl)carbamoyl)-2,3-dihydrobenzo[b]thiophene-6-sulfonamide 1,1-dioxide]	< 1000 nM	–
CN(C)S(=O)(=O)NC(=O)Nc1c2c(cc3c1CCC3)CCC2 [N-[1,2,3,5,6,7-hexahydro-s-indacen-4-yl]-N′-[(dimethylamino)sulfonyl]urea]	< 10000 nM	–
[2H]C([2H])([2H])C(O)(c1cc(S(=O)(=O)NC(=O)Nc2c3c(cc4c2CCO4)CCC3)oc1C)C([2H])([2H])[2H] [4-(2-hydroxypropan-2-yl-1,1,1,3,3,3-d6)-5-methyl-N-((3,5,6,7-tetrahydro-2H-indeno[5,6-b]furan-4-yl)carbamoyl)furan-2-sulfonamide]	< 100 nM	–
Cc1oc(S(=O)(=O)NC(=O)Nc2c(C(C)C)cccc2C(C)C)cc1C(C)(C)O [N-((2,6-diisopropylphenyl)carbamoyl)-4-(2-hydroxypropan-2-yl)-5-methylfuran-2-sulfonamide]	< 100 nM	–
NCCCn1cc(CCC(=O)Nc2cccc(S(=O)(=O)NC(=O)Nc3c4c(cc5c3CCC5)CCC4)c2)nn1 [3-(1-(3-aminopropyl)-1H-1,2,3-triazol-4-yl)-N-(3-(N-((1,2,3,5,6,7-hexahydro-s-indacen-4-yl)carbamoyl)sulfamoyl)phenyl)propanamide]	< 1000 nM	–
O=C(Nc1c2c(cc3c1CCC3)CCC2)NS(=O)(=O)c1ccc(Cl)cc1 [4-chloro-N-((1,2,3,5,6,7-hexahydro-s-indacen-4-yl)carbamoyl)benzenesulfonamide]	< 1000 nM	–
Cc1cnc(C(=O)NCCc2ccc(S(N)(=O)=O)cc2)cn1 [Glipizide precursor, reference compound]	–	> 50000 nM
O=C(Nc1c2c(cc3c1CCC3)CCC2)NS(=O)(=O)c1cccc2cccnc12 [N-((1,2,3,5,6,7-hexahydro-s-indacen-4-yl)carbamoyl)quinoline-8-sulfonamide]	< 1000 nM	–
Cc1cc(C2CC2)nc(NC(=O)NS(=O)(=O)c2cc(C(C)(C)O)co2)n1 [N-((4-cyclopropyl-6-methylpyrimidin-2-yl)carbamoyl)-4-(2-hydroxypropan-2-yl)furan-2-sulfonamide]	< 1000 nM	–
C#CCCC(=O)Nc1cccc(S(=O)(=O)NC(=O)Nc2c3c(cc4c2CCC4)CCC3)c1 [N-(3-(N-((1,2,3,5,6,7-hexahydro-s-indacen-4-yl)carbamoyl)sulfamoyl)phenyl)pent-4-ynamide]	< 1000 nM	–
Cc1cc(S(=O)(=O)NC(=O)Nc2c3c(cc4c2CCC4)CCC3)nn1C [N-((1,2,3,5,6,7-hexahydro-s-indacen-4-yl)carbamoyl)-1,5-dimethyl-1H-pyrazole-3-sulfonamide]	< 1000 nM	–
O=C(Nc1c2c(cc3c1CCC3)CCC2)NS(=O)(=O)c1ccn(C(F)(F)F)n1 [N-((1,2,3,5,6,7-hexahydro-s-indacen-4-yl)carbamoyl)-1-(trifluoromethyl)-1H-pyrazole-3-sulfonamide]	< 100 nM	–

Structure (SMILES)	IC50 [1]	IC50 [2]
O=C(CCc1cn(CCCNc2ccc([N+](=O)[O-])c3nonc23)nn1)Nc1cccc(S(=O)(=O)NC(=O)Nc2c3c(cc4c2CCC4)CCC3)c1 [N-(3-(N-((1,2,3,5,6,7-hexahydro-s-indacen-4-yl)carbamoyl)sulfamoyl)phenyl)-3-(1-(3-((7-nitrobenzo[c][1,2,5]oxadiazol-4-yl)amino)propyl)-1H-1,2,3-triazol-4-yl)propanamide]	< 10000 nM	–
O=C(Nc1c2c(cc3c1CCC3)CCC2)NS(=O)(=O)C1CCCC1 [N-((1,2,3,5,6,7-hexahydro-s-indacen-4-yl)carbamoyl)cyclopentanesulfonamide]	< 10000 nM	–
CCC1=C(C)CN(C(=O)NCCc2ccc(S(=O)(=O)NC(=O)NC3CCC(C)CC3)cc2)C1=O (stereo not shown) [Glimepiride, reference compound]	–	92000 nM
CC(C)c1cc(S(=O)(=O)NC(=O)Nc2c3c(cc4c2CCC4)CCC3)nn1C [N-((1,2,3,5,6,7-hexahydro-s-indacen-4-yl)carbamoyl)-5-isopropyl-1-methyl-1H-pyrazole-3-sulfonamide]	< 1000 nM	–
O=C(Nc1c2c(cc3c1CCC3)CCC2)NS(=O)(=O)c1ccn(-c2ccccc2)n1 [N-((1,2,3,5,6,7-hexahydro-s-indacen-4-yl)carbamoyl)-1-phenyl-1H-pyrazole-3-sulfonamide]	< 1000 nM	–
O=C(Nc1c2c(cc3c1CCC3)CCC2)NS(=O)(=O)c1cccc(OC(F)F)c1 [3-(difluoromethoxy)-N-((1,2,3,5,6,7-hexahydro-s-indacen-4-yl)carbamoyl)benzenesulfonamide]	< 1000 nM	–
O=C(Nc1c2c(cc3c1OCC3)OCC2)NS(=O)(=O)c1cccc(C2(C(F)(F)F)N=N2)c1 [N-((2,3,6,7-tetrahydrobenzo[1,2-b:4,5-b′]difuran-4-yl)carbamoyl)-3-(3-(trifluoromethyl)-3H-diazirin-3-yl)benzenesulfonamide]	< 10000 nM	–
O=C(Nc1c2c(cc3c1CCC3)CCC2)NS(=O)(=O)c1ccn(C2CCCCC2)n1 [1-cyclohexyl-N-((1,2,3,5,6,7-hexahydro-s-indacen-4-yl)carbamoyl)-1H-pyrazole-3-sulfonamide]	< 1000 nM	–
CCC1=C(C)CN(C(=O)NCCc2ccc(S(N)(=O)=O)cc2)C1=O [Glimespiride precursor, reference compound]	–	> 200000 nM
CC(C)c1cc(Cl)cc(C(C)C)c1NC(=O)NS(=O)(=O)c1ccc2ccccc2c1 [N-((4-chloro-2,6-diisopropylphenyl)carbamoyl)naphthalene-2-sulfonamide]	< 10000 nM	–
O=C(Nc1c2c(cc3c1CCC3)CCC2)NS(=O)(=O)c1ccn(Cc2ccccc2)n1 [1-benzyl-N-((1,2,3,5,6,7-hexahydro-s-indacen-4-yl)carbamoyl)-1H-pyrazole-3-sulfonamide]	< 10000 nM	–
CC(C)(O)c1cccc(S(=O)(=O)NC(=O)Nc2c3c(cc4c2CCC4)CCC3)c1 [N-((1,2,3,5,6,7-hexahydro-s-indacen-4-yl)carbamoyl)-3-(2-hydroxypropan-2-yl)benzenesulfonamide]	< 100 nM	–
COc1cc(NC(=O)NS(=O)(=O)c2cccc(C3(C(F)(F)F)N=N3)c2)c2ncccc2c1 [N-((6-methoxyquinolin-8-yl)carbamoyl)-3-(3-(trifluoromethyl)-3H-diazirin-3-yl)benzenesulfonamide]	< 50000 nM	–
O=C(Nc1c2c(cc3c1CCC3)CCC2)NS(=O)(=O)c1ccc2c(c1)OCO2 [N-((1,2,3,5,6,7-hexahydro-s-indacen-4-yl)carbamoyl)benzo[d][1,3]dioxole-5-sulfonamide]	< 1000 nM	–
CC(C)c1cc(Cl)cc(C(C)C)c1NC(=O)NS(=O)(=O)c1cc(C(C)(C)O)co1 [sodium ((4-chloro-2,6-diisopropylphenyl)carbamoyl)((4-(2-hydroxypropan-2-yl)furan-2-yl)sulfonyl)amide]	< 100 nM	–
CC(C)c1cc(Cl)cc(C(C)C)c1NC(=O)NS(=O)(=O)c1cnc2ccccc2c1 [N-((4-chloro-2,6-diisopropylphenyl)carbamoyl)quinoline-3-sulfonamide]	< 100 nM	–
C#CCNC(=O)CCc1ccc(S(=O)(=O)NC(=O)Nc2c3c(cc4c2CCC4)CCC3)cc1 [3-(4-(N-((1,2,3,5,6,7-hexahydro-s-indacen-4-yl)carbamoyl)sulfamoyl)phenyl)-N-(prop-2-yn-1-yl)propanamide]	< 100 nM	–
CC(C)n1nc(S(=O)(=O)NC(=O)Nc2c3c(cc4c2CCC4)CCC3)cc1C(F)(F)F [N-((1,2,3,5,6,7-hexahydro-s-indacen-4-yl)carbamoyl)-1-isopropyl-5-(trifluoromethyl)-1H-pyrazole-3-sulfonamide]	< 1000 nM	–

Reference: patent US10538487B2, “Sulfonylureas and related compounds and use of same” (priority 2015, dated 2020)
